Measured values taken from PubChem BioAssay AID1963847 (Molecular Pharmacology Branch, DTP, NCI, 2024).

Test system: 415267-285-R-J2-PDC complex spheroid viability
Assay: Anticancer human tumor 415267-285-R-J2-PDC patient-derived breast carcinoma cell line growth inhibition [POLQ]
Conditions: for IC50: curve of first compound; for viability, T/C: stronger effect = lower value; active = viability on the fitted dose curve at most 10% of control; inactive = the rest
Outline: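 Growth inhibition in 3D: complex spheroids (tumor PDC, HUVEC, MSC) treated with POLQ inhibitor combinations; where Cmax unknown, highest tested concentration 10 microM, except SN-38 at 1 microM.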

[1] = second compound 0.0316 µM, first compound 0.0316 µM
[2] = second compound 0.0316 µM, first compound 0.1 µM
[3] = second compound 0.1 µM, first compound 0.0316 µM
[4] = second compound 0.1 µM, first compound 0.1 µM
[5] = second compound 0.316 µM, first compound 0.0316 µM
[6] = second compound 0.316 µM, first compound 0.1 µM
[7] = second compound 1 µM, first compound 0.0316 µM
[8] = second compound 1 µM, first compound 0.1 µM
[9] = second compound 3.16 µM, first compound 0.0316 µM
[10] = second compound 3.16 µM, first compound 0.1 µM
[11] = second compound 10 µM, first compound 0.0316 µM
[12] = second compound 10 µM, first compound 0.1 µM
[13] = second compound 0.0316 µM, first compound 0.316 µM
[14] = second compound 0.0316 µM, first compound 1 µM
[15] = second compound 0.0316 µM, first compound 3.16 µM
[16] = second compound 0.0316 µM, first compound 10 µM
[17] = second compound 0.1 µM, first compound 0.316 µM
[18] = second compound 0.1 µM, first compound 1 µM
[19] = second compound 0.1 µM, first compound 3.16 µM
[20] = second compound 0.1 µM, first compound 10 µM
[21] = second compound 0.316 µM, first compound 0.316 µM
[22] = second compound 0.316 µM, first compound 1 µM
[23] = second compound 0.316 µM, first compound 3.16 µM
[24] = second compound 0.316 µM, first compound 10 µM
[25] = second compound 1 µM, first compound 0.316 µM
[26] = second compound 1 µM, first compound 1 µM
[27] = second compound 1 µM, first compound 3.16 µM
[28] = second compound 1 µM, first compound 10 µM
[29] = second compound 3.16 µM, first compound 0.316 µM
[30] = second compound 3.16 µM, first compound 1 µM
[31] = second compound 3.16 µM, first compound 3.16 µM
[32] = second compound 3.16 µM, first compound 10 µM
[33] = second compound 10 µM, first compound 0.316 µM
[34] = second compound 10 µM, first compound 1 µM
[35] = second compound 10 µM, first compound 3.16 µM
[36] = second compound 10 µM, first compound 10 µM
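Also: spheroids exposed to compounds for one week before readout.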
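For viability, T/C in this document: luminescence used as stand-in measure of viable cells; 100% = DMSO vehicle control viability.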

CC[C@@]1(O)C(=O)OCc2c1cc1n(c2=O)Cc2cc3c(CN(C)C)c(O)ccc3nc2-1 + Cc1cccc(N(C)C(=O)C2C(O)CCN2c2nc(C)cc(C(F)(F)F)c2C#N)c1
active: viability, T/C [2] 7.7% | viability, T/C [4] 7.92% | viability, T/C [6] 9.41% | viability, T/C [8] 7.15% | viability, T/C [10] 8.04% | viability, T/C [12] 9.1%
18.9 nM: IC50 (second compound 1 µM)
inactive: viability, T/C (second compound 0.0316 µM, first compound 0.000316 µM) 90.7% | viability, T/C (second compound 0.0316 µM, first compound 0.001 µM) 102% | viability, T/C (second compound 0.0316 µM, first compound 0.00316 µM) 103% | viability, T/C (second compound 0.0316 µM, first compound 0.01 µM) 90.9% | viability, T/C [1] 22% | viability, T/C (second compound 0.1 µM, first compound 0.000316 µM) 96.9% | viability, T/C (second compound 0.1 µM, first compound 0.001 µM) 96.9% | viability, T/C (second compound 0.1 µM, first compound 0.00316 µM) 101% | viability, T/C (second compound 0.1 µM, first compound 0.01 µM) 86.5% | viability, T/C [3] 19.9% | viability, T/C (second compound 0.316 µM, first compound 0.000316 µM) 102% | viability, T/C (second compound 0.316 µM, first compound 0.001 µM) 98% | viability, T/C (second compound 0.316 µM, first compound 0.00316 µM) 102% | viability, T/C (second compound 0.316 µM, first compound 0.01 µM) 104% | viability, T/C [5] 19.2% | viability, T/C (second compound 1 µM, first compound 0.000316 µM) 101% | viability, T/C (second compound 1 µM, first compound 0.001 µM) 96.4% | viability, T/C (second compound 1 µM, first compound 0.00316 µM) 107% | viability, T/C (second compound 1 µM, first compound 0.01 µM) 89.5% | viability, T/C [7] 18.1% | viability, T/C (second compound 3.16 µM, first compound 0.000316 µM) 98.5% | viability, T/C (second compound 3.16 µM, first compound 0.001 µM) 102% | viability, T/C (second compound 3.16 µM, first compound 0.00316 µM) 92% | viability, T/C (second compound 3.16 µM, first compound 0.01 µM) 91.7% | viability, T/C [9] 13.8% | viability, T/C (second compound 10 µM, first compound 0.000316 µM) 108% | viability, T/C (second compound 10 µM, first compound 0.001 µM) 96.2% | viability, T/C (second compound 10 µM, first compound 0.00316 µM) 104% | viability, T/C (second compound 10 µM, first compound 0.01 µM) 85.6% | viability, T/C [11] 17.1%
18.2 nM: IC50 (second compound 10 µM)
19.8 nM: IC50 (second compound 0.0316 µM)
20.6 nM: IC50 (second compound 0.316 µM)
18.8 nM: IC50 (second compound 0.1 µM)
18.5 nM: IC50 (second compound 3.16 µM)

Nc1ccn(C2OC(CO)C(O)C2(F)F)c(=O)n1 (stereo unspecified) + Cc1cccc(N(C)C(=O)C2C(O)CCN2c2nc(C)cc(C(F)(F)F)c2C#N)c1
inactive: viability, T/C [7] 12.5%
< 31.6 nM: IC50 (second compound 0.0316 µM) | IC50 (second compound 0.1 µM) | IC50 (second compound 0.316 µM) | IC50 (second compound 1 µM) | IC50 (second compound 3.16 µM) | IC50 (second compound 10 µM)
active: viability, T/C [1] 8.22% | viability, T/C [2] 6.11% | viability, T/C [13] 5.62% | viability, T/C [14] 4.61% | viability, T/C [15] 5.96% | viability, T/C [16] 5.35% | viability, T/C [3] 8.77% | viability, T/C [4] 5.43% | viability, T/C [17] 6.85% | viability, T/C [18] 5.22% | viability, T/C [19] 6.13% | viability, T/C [20] 4.79% | viability, T/C [5] 8.5% | viability, T/C [6] 6.58% | viability, T/C [21] 5.69% | viability, T/C [22] 5.62% | viability, T/C [23] 6.58% | viability, T/C [24] 6.07% | viability, T/C [8] 6.12% | viability, T/C [25] 5.2% | viability, T/C [26] 5.51% | viability, T/C [27] 5.07% | viability, T/C [28] 5.32% | viability, T/C [9] 7.95% | viability, T/C [10] 5.96% | viability, T/C [29] 5.8% | viability, T/C [30] 4.93% | viability, T/C [31] 5.53% | viability, T/C [32] 5.95% | viability, T/C [11] 9.14% | viability, T/C [12] 6.37% | viability, T/C [33] 6.58% | viability, T/C [34] 5.23% | viability, T/C [35] 6.03% | viability, T/C [36] 5.65%

CC1COCCN1c1cc(C2(O)CC3CCC(C2)O3)c2cnn(-c3ccn[nH]3)c2n1 (stereo unspecified) + Nc1ccc(C#CCN(C(=O)Cc2ncc(C(F)(F)F)cc2C(F)(F)F)c2ccc(F)cc2)nn1
< 31.6 nM: IC50 (second compound 0.0316 µM) | IC50 (second compound 0.1 µM) | IC50 (second compound 0.316 µM) | IC50 (second compound 1 µM) | IC50 (second compound 3.16 µM) | IC50 (second compound 10 µM)
inactive: viability, T/C [1] 19.2% | viability, T/C [3] 22% | viability, T/C [5] 22.7% | viability, T/C [7] 18.7% | viability, T/C [9] 16.6% | viability, T/C [11] 16.1%
active: viability, T/C [2] 6.63% | viability, T/C [13] 4.19% | viability, T/C [14] 3.59% | viability, T/C [15] 4.18% | viability, T/C [16] 5.72% | viability, T/C [4] 6.34% | viability, T/C [17] 5.38% | viability, T/C [18] 4.69% | viability, T/C [19] 3.81% | viability, T/C [20] 2.94% | viability, T/C [6] 6.83% | viability, T/C [21] 4.18% | viability, T/C [22] 3.94% | viability, T/C [23] 3.9% | viability, T/C [24] 2.58% | viability, T/C [8] 5.19% | viability, T/C [25] 4.87% | viability, T/C [26] 3.6% | viability, T/C [27] 3.79% | viability, T/C [28] 2.6% | viability, T/C [10] 5.61% | viability, T/C [29] 4.81% | viability, T/C [30] 3.47% | viability, T/C [31] 3.8% | viability, T/C [32] 3.42% | viability, T/C [12] 6.98% | viability, T/C [33] 5.96% | viability, T/C [34] 4.12% | viability, T/C [35] 3.92% | viability, T/C [36] 3.05%
